We go through three compounds from US20260042764A1, “COMPOSITIONS AND METHODS FOR INHIBITION OF KRAS” (TheRas, Inc., priority 2022, published 2026).

A value given as a limit tells only on which side of the number the result lay.

In test [1] the test system is SW1900 cells (KRAS G12D). The experiment in a line: Cell-based pERK HTRF assay in SW1900 cells (Biological Example 5). The settings on record: Homo sapiens, SW1990, SW1990 cells (text: SW1900, KRAS G12D). The procedure: (§1) Biological Example 5: Cell-based PERK HTRF assay in AsPC-1, SW1900, HPAC, Capan-2, RKN, H358, HCT116, KP-2, H1573, A549, MKN1, and HT1080 cells
(§2) The inhibition of ERK phosphorylation, as measured using the HTRF Advanced Phospho-ERK 1/2 (Thr202/Tyr204) Detection Assay kit (Perkin Elmer), was used to determine the effectiveness of test compounds in disrupting KRAS-driven protein/effector signaling in cells.
(§3) On day 1, cells were seeded into 96-well plates at 2.5×10^4 cells/well in 100 μL of complete growth media supplemented with 10% fetal bovine serum (FBS) and incubated at 37° C., in the presence of 5% CO2.
(§4) On day 2, cells were treated with compounds diluted in DMSO at 0.25% final DMSO concentration. Compounds were dosed in a 9-point concentration curve with three-fold dilution between concentrations. Cells were incubated in the presence of compound for two hours at 37° C. Following this treatment period, cells were harvested by aspirating the media, adding 40 μL of kit-supplied 1x lysis buffer per well, and shaking for 30 minutes at 250 rpm at room temperature.
(§5) Following cell lysis, samples were homogenized by pipetting up and down twenty times and 16 μL of cell lysate per well was transferred from the 96-well cell culture plate to two wells of a 384-well detection plate. A complete detection buffer was prepared by diluting D2 and Eu Cryptate antibodies 1:20 in kit-provided detection solution, 4 μL of complete detection buffer was then added to each well with lysate. Plates were incubated with gentle rocking for 24 hours at 4° C.
(§6) Following this incubation period, plates were centrifuged at 500×g for one minute and analyzed on a CLARIOstar plate reader. Data was imported into Microsoft Excel and the signal from the 665 nm channel was divided by the signal from the 620 nm channel. % pERK was calculated as: […]
(§7) Data was imported to the Prism software package (Graphpad) and EC50 values were calculated using the log (inhibitor) vs, response—variable slopc (Four parameters) model.
(In general: In TR-FRET formats the signal depends on donor and acceptor labels being close together.)

Test [2] deals with Capan-2 cells (KRAS G12V). As to the kind of experiment: Cell-based pERK HTRF assay in Capan-2 cells (Biological Example 5). The settings on record: Homo sapiens, Capan-2, Capan-2 (KRAS G12V) cells. The protocol:
as §1, §2, §3, §4, §5, §6, §7

The subject of test [3] is HCT116 cells (KRAS G13D). As to the kind of experiment: Cell-based pERK HTRF assay in HCT116 cells (Biological Example 5). As to conditions: Homo sapiens, HCT-116. The protocol:
as §1, §2, §3, §4, §5, §6, §7

The subject of test [4] is H1573 cells (KRAS G12A). The experiment in a line: Cell-based pERK HTRF assay in H1573 cells (Biological Example 5). As to conditions: Homo sapiens, NCI-H1573. The procedure:
as §1, §2, §3, §4, §5, §6, §7

Test [5] concerns A549 cells (KRAS G12S). As to the kind of experiment: Cell-based pERK HTRF assay in A549 cells (Biological Example 5). As to conditions: Homo sapiens. The protocol: as §1, §2, §3, §4, §5, §6, §7
Test [6] deals with HT1080 cells (NRAS). As to the kind of experiment: Cell-based pERK HTRF assay in HT1080 cells (Biological Example 5). The settings on record: Homo sapiens, HT-1080. The procedure: as §1, §2, §3, §4, §5, §6, §7
The subject of test [7] is SW1900 cells (KRAS G12D). The experiment in a line: 3D Cell viability assay in SW1900 cells (Biological Example 6). As to conditions: Homo sapiens; SW1990 (text: SW1900, KRAS G12D) spheroids, 72 hours. It is filed as cell-based. In outline:
(§8)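 Tumour spheroids, grown 48 h from 1000 seeded cells in ultra-low attachment wells, receive compound at nine three-fold-spaced concentrations (final DMSO 0.25%) for 72 h at 37 °C, 5% CO2. Viability is measured by luminescence after CTG 3D lysis.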

The test system of test [8] is Capan-2 cells (KRAS G12V). The experiment in a line: 3D Cell viability assay in Capan-2 cells (Biological Example 6). It is filed as cell-based. The settings on record: Homo sapiens; Capan-2 (KRAS G12V) spheroids, 72 hours. The protocol: (§9) Biological Example 6: 3D Cell viability assay in AsPC-1, SW1900, HPAC, Capan-2, RKN, H358, HCT116, KP-2, H1573, A549, MKN1, and HT1080 cells
(§10) The inhibition of cellular viability as a result of test compound treatment in a spheroid assay was measured using the CellTiter-Glow 3D Cell Viability Assay (Promega).
(§11) On Day 1, 1000 cells per well were seeded in 150 μL of complete growth media supplemented with 10% fetal bovine serum (FBS) and incubated at 37° C., in the presence of 5% CO2 in 96-well ultra-low attachment microplates (Corning) for 48 hours undisturbed to allow spheroids to form.
(§12) Following spheroid formation, cells were treated with compounds diluted in DMSO at 0.25% final DMSO concentration. Compounds were dosed in a 9-point concentration curve with three-fold dilution between concentrations. Cells were incubated in the presence of compound for 72 hours at 37° C., in the presence of 5% CO2.
(§13) Following this incubation period, the kit-provided CTG reagent was allowed to equilibrate for 30 minutes at room temperature, 150 μL of equilibrated CTG reagent was added to each well, and the plate was sealed before shaking at 250 rpm for 10 minutes at room temperature to lyse the cells, 150 μL of lysate per well was transferred to a 96-well plate and luminescence was read on a CLARIOstar plate reader.
(§14) Data was imported into the Prism software package (Graphpad) and EC50 values were calculated using the log (inhibitor) vs, response—variable slope (Four parameters) model.

The test system of test [9] is H358 cells (KRAS G12C). The experiment in a line: 3D Cell viability assay in H358 cells (Biological Example 6). It is filed as cell-based. As to conditions: Homo sapiens, NCI-H358; H358 (KRAS G12C) spheroids, 72 hours. In outline: as §8
The subject of test [10] is HCT116 cells (KRAS G13D). The experiment in a line: 3D Cell viability assay in HCT116 cells (Biological Example 6). It is filed as cell-based. The settings on record: Homo sapiens, HCT-116; HCT116 (KRAS G13D) spheroids, 72 hours. In outline: as §8
The test system of test [11] is H1573 cells (KRAS G12A). As to the kind of experiment: 3D Cell viability assay in H1573 cells (Biological Example 6). It is filed as cell-based. The settings on record: Homo sapiens, NCI-H1573; H1573 (KRAS G12A) spheroids, 72 hours. The protocol:
as §9, §10, §11, §12, §13, §14

Test [12] deals with A549 cells (KRAS G12S). As to the kind of experiment: 3D Cell viability assay in A549 cells (Biological Example 6). It is filed as cell-based. As to conditions: Homo sapiens; A549 (KRAS G12S) spheroids, 72 hours. The procedure:
as §9, §10, §11, §12, §13, §14

Test [13] concerns MKN1 cells (KRAS amplification). The experiment in a line: 3D Cell viability assay in MKN1 cells (Biological Example 6). The settings on record: Homo sapiens, MKN-1; MKN (MKN1, KRAS amplification) spheroids, 72 hours. In kind it is cell-based. The protocol:
as §9, §10, §11, §12, §13, §14

For test [14], the system named is HT1080 cells (NRAS). As to the kind of experiment: 3D Cell viability assay in HT1080 cells (Biological Example 6). The settings on record: Homo sapiens, HT-1080; HT1080 (NRAS) spheroids, 72 hours. In kind it is cell-based. In outline: as §8
The subject of test [15] is RKN cells (KRAS G12V). As to the kind of experiment: 3D Cell viability assay in RKN cells (Biological Example 6). In kind it is cell-based. The settings on record: RKN (KRAS G12V) spheroids, 72 hours. The procedure: as §9, §10, §11, §12, §13, §14

Turning to `CCN(c1nc(OC[C@@]23CCCN2C[C@H](F)C3)nc2c(F)c(-c3ccc(F)c4sc(N)c(C#N)c34)c(Cl)cc12)[C@@H]1CCN(C(C)=O)[C@@H]1C` [Compound 323], the IC50 was not above 100 nM in [1]; not above 100 nM in test [2]; not above 100 nM in [3]; not above 100 nM in [4]; not above 100 nM in test [5]; more than 1000 nM in [6]. In addition, the IC50 in test [7] is not above 100 nM; in [8], not above 100 nM; in [9] it was not above 100 nM; in test [10] it was 100 to 1000 nM; in test [11], not above 100 nM; in test [12], not above 100 nM. Further, the results for the IC50 in [13] and in test [14] were not above 100 nM and more than 1000 nM, respectively.

For the compound `CCN(c1nc(OC[C@@]23CCCN2C[C@H](F)C3)nc2c(F)c(-c3ccc(F)c4sc(N)c(C#N)c34)c(Cl)cc12)[C@@H]1CCN(C(=O)C2CC2)[C@@H]1C` [Compound 337], the IC50 in test [1] was not above 100 nM; in test [2], not above 100 nM; in [3], not above 100 nM; in test [4], not above 100 nM; in test [5], 100 to 1000 nM; in test [6], more than 1000 nM. The IC50 is not above 100 nM in test [7]; 100 to 1000 nM in test [8]; not above 100 nM in test [9]; 100 to 1000 nM in [10]; not above 100 nM in [11]; not above 100 nM in [12]. Moreover, the IC50 in test [13] was not above 100 nM; in test [14], more than 1000 nM.

With `CCC(=O)N1CC[C@@H](N(C)c2nc(OC[C@@]34CCCN3C[C@H](F)C4)nc3c(F)c(-c4ccc(F)c5sc(N)c(C#N)c45)c(C(F)(F)F)cc23)[C@H]1C` [Compound 260], the IC50 in [1] is not above 100 nM; in test [2] it was not above 100 nM; in [3] it was not above 100 nM; in test [4], not above 100 nM; in test [5], not above 100 nM; in [6], more than 1000 nM. Also, the IC50 was 100 to 1000 nM in test [7]; not above 100 nM in test [8]; not above 100 nM in [15]; not above 100 nM in test [9]; 100 to 1000 nM in test [10]; not above 100 nM in test [11]. The values for the IC50 in test [12] and in [14] were not above 100 nM and more than 1000 nM, respectively.

One may read the IC50 as the concentration that inhibits the measured activity by half. A lower IC50 goes with inhibition by little substance.
